Data published in ChEMBL document CHEMBL4414671, “Antinociceptive Grayanane Diterpenoids from the Leaves of Pieris japonica” (2019).

Each compound was assayed on Mus musculus (assay: Antinociceptive activity in mouse as reduction in acetic acid-induced writhes at 0.2 mg/kg, ip relative to control).
Type: functional

SMILES	inhibition in vivo at 0.2 mg/kg [%]
C=C1[C@@H]2CC[C@@H]3C[C@@]2(C[C@@H](O)[C@@]2(O)[C@H]1CC(=O)C2(C)C)C[C@@]3(C)O	59.1

These compounds were tested on Mus musculus (assay: Antinociceptive activity in mouse as reduction in acetic acid-induced writhes at 1 mg/kg, ip relative to control).
Type: functional

SMILES	inhibition in vivo at 1 mg/kg [%]
C=C1[C@@H]2CC[C@@H]3C[C@@]2(C[C@@H](O)[C@@]2(O)[C@H]1CC(=O)C2(C)C)C[C@@]3(C)O	76.3

These compounds were tested on Mus musculus (assay: Antinociceptive activity in mouse as reduction in acetic acid-induced writhes at 5 mg/kg, ip relative to control).
Type: functional

SMILES	inhibition in vivo at 5 mg/kg [%]
C=C1[C@@H]2CC[C@@H]3C[C@@]2(C[C@@H](O)[C@@]2(O)[C@@H]1[C@H](O)[C@H](O)C2(C)C)C[C@@]3(C)O	> 50
C=C1[C@@H]2[C@@H](OC)[C@H](O)C(C)(C)[C@@]2(O)[C@H](O)C[C@]23C[C@@](C)(O)[C@H](CC[C@@H]12)[C@H]3O	> 50
C=C1[C@@H]2C[C@@H](O)[C@@H]3C[C@@]2(C[C@@H](O)[C@@]2(O)[C@H]1C[C@H](O)C2(C)C)C[C@@]3(C)O	> 50
C=C1[C@@H]2CC[C@@H]3C[C@@]2(C[C@@H](O)[C@@]2(O)[C@H]1C[C@H](O)C2(C)C)C[C@@]3(C)OC	> 50
C=C1[C@@H]2[C@@H](O)[C@H](O)C(C)(C)[C@@]2(O)[C@H](O)C[C@]23C=C(C)[C@H](CC[C@@H]12)[C@H]3O	> 50
CC1=C2CC[C@@H]3C[C@@]2(C[C@@H](O)[C@@]2(O)[C@H]1C[C@H](O)C2(C)C)C[C@@]3(C)O	> 50
C=C1[C@@H]2[C@@H](OC)[C@H](O)C(C)(C)[C@@]2(O)[C@H](O)C[C@]23C[C@@](C)(O)[C@H](CC[C@@H]12)[C@H]3OC(=O)C(C)O (stereo partly specified)	> 50
CC1(C)[C@@H](O)C[C@@H]2[C@@](C)(O)[C@@H]3CC[C@]4(O)C[C@@]3(C[C@@H](O)[C@@]21O)C[C@@]4(C)O	> 50
C=C1[C@@H]2CC[C@@H]3C[C@@]2(C[C@@H](O)[C@@]2(O)[C@H]1CC(=O)C2(C)C)C[C@@]3(C)O	87.3
C=C1[C@@H]2[C@@H](O)[C@H](O)C(C)(C)[C@@]2(O)[C@H](O)C[C@]23C[C@@](C)(O)[C@H](CC[C@@H]12)[C@H]3OC(=O)CC	> 50
C=C1C2=C([C@H](O)C[C@@]34C[C@@H](CC[C@@H]13)[C@](C)(O)C4)C(C)(C)[C@@H](O)[C@H]2O	> 50
C=C1[C@@H]2CC[C@@H]3C[C@@]2(C[C@@H](O)[C@@]2(O)[C@H]1C[C@H](O)C2(C)C)C[C@@]3(C)O	> 50
C=C1[C@@H]2CC[C@@H]3[C@@H](O)[C@@]2(C[C@@H](O)[C@@]2(O)[C@H]1C[C@H](O)C2(C)C)C[C@@]3(C)O	> 50
C=C1[C@H]2C[C@H](O)C(C)(C)[C@]2(O)CC[C@@]23C[C@@H](CC[C@@H]12)[C@@](O)(CO)C3	> 50
C=C1[C@@H]2CC[C@@H]3[C@@H](OC(=O)CC)[C@@]2(C[C@@H](O)[C@@]2(O)[C@H]1C[C@H](O)C2(C)C)C[C@@]3(C)O	> 50
C=C1[C@@H]2CC[C@H]3C(C)=C[C@]2(C[C@@H](O)[C@@]2(O)[C@H]1C[C@H](O)C2(C)C)[C@@H]3O	> 50
C=C1[C@@H]2[C@H](O)[C@H](O)C(C)(C)[C@@]2(O)[C@H](O)C[C@]23C[C@@](C)(O)[C@H](CC[C@@H]12)[C@H]3O	> 50
CC1=C2C[C@H](O)C(C)(C)[C@]23O[C@]12CC[C@@H]1C[C@@]2(C[C@H]3O)C[C@@]1(C)O	> 50
C=C1[C@@H]2[C@@H](OC)[C@H](O)C(C)(C)[C@@]2(O)[C@H](O)C[C@]23C=C(C)[C@H](CC[C@@H]12)[C@H]3O	> 50

What follows are compounds tested on Mus musculus (assay: Antinociceptive activity in mouse as reduction in acetic acid-induced writhes at 0.04 mg/kg,ip relative to control).
Type: functional

SMILES	inhibition in vivo at 0.04 mg/kg [%]
CC1(C)[C@@H](O)[C@H](O)[C@H]2[C@](C)(O)[C@@H]3CC[C@@H]4[C@@H](O)[C@@]3(C[C@@H](O)[C@@]21O)C[C@@]4(C)O	88.7
CO[C@H]1[C@H](O)C(C)(C)[C@@]2(O)[C@H](O)C[C@]34C[C@@](C)(O)[C@H](CC[C@H]3[C@@](C)(O)[C@H]12)[C@H]4O	59.1
C=C1[C@@H]2CC[C@@H]3C[C@]2(C=C3CO)C[C@@H](O)[C@@]2(O)[C@H]1C[C@H](O)C2(C)C	56.3
CC1=C[C@@]23C[C@@H](O)[C@@]4(O)[C@@H]([C@@H](O)[C@H](O)C4(C)C)[C@](C)(O)[C@@H]2CC[C@@H]1[C@H]3O	61.9

What follows are compounds tested on Mus musculus (assay: Antinociceptive activity in mouse as reduction in acetic acid-induced writhes at 0.2 to 1 mg/kg, ip relative to control).
Type: functional

SMILES	inhibition (INH) [%]
CC1=C2CC[C@@H]3[C@@H](O)[C@@]2(C[C@@H](O)[C@@]2(O)[C@H]1[C@@H](O)[C@H](O)C2(C)C)C[C@@]3(C)O	>50
